This passage reports Activity, EC50 and Tm results from ChEMBL document CHEMBL3390848, “Affinity selection and sequence-activity relationships of HIV-1 membrane fusion inhibitors directed at the drug-resistant variants” (Medchemcomm, 2010).

Residues, ends and D or L forms follow the SMILES beside them.

Usually EC50 stands for the concentration that produces a half-maximal response. A word on the Tm: it is the temperature at the midpoint of the melting transition.

Assay [1] deals with Human immunodeficiency virus 1. The assay is described as follows: Binding affinity to HIV1 His-tagged N-terminal heptad repeat of envelope glycoprotein gp41 assessed as recovery of N36-drug complex after 2 hrs by LC-MS analysis. Further details: concentration or dose not given beside the values.
In assay [2] the test system is Human immunodeficiency virus 1. The assay is described as follows: Antiviral activity against HIV1 NL4-3 harboring gp41 D36G mutant infected in human HeLa cells expressing CD4-LTR-beta-gal assessed as inhibition of viral replication after 48 hrs by MAGI assay. In kind it is functional, organism-based.
In assay [3] the test system is Human immunodeficiency virus 1. The assay is described as follows: Thermal stability of HIV1 envelope glycoprotein gp41 His-tagged N-terminal heptad repeat N36-drug complex assessed as thermal unfolding transition state by measuring molar ellipticity at 4 to 90 degC by circular dichroic spectra analysis.

As to `CC[C@H](C)[C@H](NC(=O)[C@H](CC(C)C)NC(=O)[C@H](CCC(=O)O)NC(=O)[C@H](CCC(=O)O)NC(=O)[C@@H](NC(=O)[C@H](CCCCN)NC(=O)[C@H](CCCCN)NC(=O)[C@@H](NC(=O)[C@H](Cc1ccc(O)cc1)NC(=O)[C@H](CCC(=O)O)NC(=O)[C@H](CCC(=O)O)NC(=O)[C@@H](NC(=O)[C@H](CCCCN)NC(=O)[C@H](CCCCN)NC(=O)[C@H](CC(=O)O)NC(=O)[C@H](Cc1c[nH]c2ccccc12)NC(=O)[C@H](CCC(=O)O)NC(=O)[C@H](CCC(=O)O)NC(=O)[C@H](Cc1c[nH]c2ccccc12)NC(C)=O)[C@@H](C)CC)[C@@H](C)O)[C@@H](C)CC)C(=O)N[C@@H](CCCCN)C(=O)N[C@@H](CCCCN)C(=O)N[C@@H](CO)C(=O)N[C@@H](CCC(=O)O)C(=O)N[C@@H](CCC(=O)O)C(=O)N[C@@H](CC(=O)O)C(=O)N[C@@H](CCC(N)=O)C(=O)N[C@@H](CCCCN)C(=O)N[C@@H](CCCCN)C(=O)N[C@@H](CC(N)=O)C(=O)N[C@@H](CCC(=O)O)C(=O)N[C@@H](CCC(=O)O)C(=O)N[C@@H](CCC(=O)O)C(=O)N[C@@H](CC(C)C)C(=O)N[C@@H](CCCCN)C(=O)N[C@@H](CCCCN)C(N)=O` (Ac-WEEWDKKIEEYTKKIEELIKKSEEDQKKNEEELKK-NH2), the Activity in assay [1] came to 4.5%. The half-maximal effective concentration (EC50) in assay [2] was 2.9 nM. Besides, in assay [3], the melting temperature (Tm) was 75.1 °C.
On to `CC[C@H](C)[C@H](NC(=O)[C@H](CC(C)C)NC(=O)[C@H](CCC(=O)O)NC(=O)[C@H](CCC(=O)O)NC(=O)[C@@H](NC(=O)[C@H](CCCCN)NC(=O)[C@H](CCCCN)NC(=O)[C@@H](NC(=O)[C@H](Cc1ccc(O)cc1)NC(=O)[C@H](CCC(=O)O)NC(=O)[C@H](CCC(=O)O)NC(=O)[C@@H](NC(=O)[C@H](CCCCN)NC(=O)[C@H](CCCCN)NC(=O)[C@H](CC(=O)O)NC(=O)[C@H](Cc1c[nH]c2ccccc12)NC(=O)[C@H](CCC(=O)O)NC(=O)[C@H](CCC(=O)O)NC(=O)[C@H](Cc1c[nH]c2ccccc12)NC(C)=O)[C@@H](C)CC)[C@@H](C)O)[C@@H](C)CC)C(=O)N[C@@H](CCCCN)C(=O)N[C@@H](CCCCN)C(=O)N[C@@H](CO)C(=O)N[C@@H](CCC(=O)O)C(=O)N[C@@H](CCC(=O)O)C(=O)N[C@H](C(=O)N[C@@H](CCC(N)=O)C(=O)N[C@@H](CCCCN)C(=O)N[C@@H](CCCCN)C(=O)N[C@@H](CC(N)=O)C(=O)N[C@@H](CCC(=O)O)C(=O)N[C@@H](CCC(=O)O)C(=O)N[C@@H](CCC(=O)O)C(=O)N[C@@H](CC(C)C)C(=O)N[C@@H](CCCCN)C(=O)N[C@@H](CCCCN)C(N)=O)C(C)C` (Ac-WEEWDKKIEEYTKKIEELIKKSEEVQKKNEEELKK-NH2), for which the Activity in assay [1] is 6.2%. In assay [2], the half-maximal effective concentration (EC50) amounted to 2.2 nM. The Tm in assay [3] stood at 77.7 °C.
`CC[C@H](C)[C@H](NC(=O)[C@H](CC(C)C)NC(=O)[C@H](CCC(=O)O)NC(=O)[C@H](CCC(=O)O)NC(=O)[C@@H](NC(=O)[C@H](CCCCN)NC(=O)[C@H](CCCCN)NC(=O)[C@@H](NC(=O)[C@H](Cc1ccc(O)cc1)NC(=O)[C@H](CCC(=O)O)NC(=O)[C@H](CCC(=O)O)NC(=O)[C@@H](NC(=O)[C@H](CCCCN)NC(=O)[C@H](CCCCN)NC(=O)[C@H](CC(=O)O)NC(=O)[C@H](Cc1c[nH]c2ccccc12)NC(=O)[C@H](CCC(=O)O)NC(=O)[C@H](CCC(=O)O)NC(=O)[C@H](Cc1c[nH]c2ccccc12)NC(C)=O)[C@@H](C)CC)[C@@H](C)O)[C@@H](C)CC)C(=O)N[C@@H](CCCCN)C(=O)N[C@@H](CCCCN)C(=O)N[C@@H](CO)C(=O)N[C@@H](CCC(=O)O)C(=O)N[C@@H](CCC(=O)O)C(=O)N[C@@H](Cc1cnc[nH]1)C(=O)N[C@@H](CCC(N)=O)C(=O)N[C@@H](CCCCN)C(=O)N[C@@H](CCCCN)C(=O)N[C@@H](CC(N)=O)C(=O)N[C@@H](CCC(=O)O)C(=O)N[C@@H](CCC(=O)O)C(=O)N[C@@H](CCC(=O)O)C(=O)N[C@@H](CC(C)C)C(=O)N[C@@H](CCCCN)C(=O)N[C@@H](CCCCN)C(N)=O` (Ac-WEEWDKKIEEYTKKIEELIKKSEEHQKKNEEELKK-NH2): the Activity in assay [1] came out at 4.3%. In addition, the concentration giving a half-maximal response (EC50) in assay [2] came to 2 nM. Also, the melting temperature (Tm) in assay [3] is 72.6 °C.
For the compound `CC[C@H](C)[C@H](NC(=O)[C@H](CC(C)C)NC(=O)[C@H](CCC(=O)O)NC(=O)[C@H](CCC(=O)O)NC(=O)[C@@H](NC(=O)[C@H](CCCCN)NC(=O)[C@H](CCCCN)NC(=O)[C@@H](NC(=O)[C@H](Cc1ccc(O)cc1)NC(=O)[C@H](CCC(=O)O)NC(=O)[C@H](CCC(=O)O)NC(=O)[C@@H](NC(=O)[C@H](CCCCN)NC(=O)[C@H](CCCCN)NC(=O)[C@H](CC(=O)O)NC(=O)[C@H](Cc1c[nH]c2ccccc12)NC(=O)[C@H](CCC(=O)O)NC(=O)[C@H](CCC(=O)O)NC(=O)[C@H](Cc1c[nH]c2ccccc12)NC(C)=O)[C@@H](C)CC)[C@@H](C)O)[C@@H](C)CC)C(=O)N[C@@H](CCCCN)C(=O)N[C@@H](CCCCN)C(=O)N[C@@H](CO)C(=O)N[C@@H](CCC(=O)O)C(=O)N[C@@H](CCC(=O)O)C(=O)N[C@@H](CO)C(=O)N[C@@H](CCC(N)=O)C(=O)N[C@@H](CCCCN)C(=O)N[C@@H](CCCCN)C(=O)N[C@@H](CC(N)=O)C(=O)N[C@@H](CCC(=O)O)C(=O)N[C@@H](CCC(=O)O)C(=O)N[C@@H](CCC(=O)O)C(=O)N[C@@H](CC(C)C)C(=O)N[C@@H](CCCCN)C(=O)N[C@@H](CCCCN)C(N)=O` (Ac-WEEWDKKIEEYTKKIEELIKKSEESQKKNEEELKK-NH2), in assay [1], the Activity turned out to be 4%. In addition, the concentration giving a half-maximal response (EC50) in assay [2] is 2.5 nM. Besides, the melting temperature (Tm) in assay [3] came to 72.4 °C.
The corresponding values for `CC[C@H](C)[C@H](NC(=O)[C@H](CCC(=O)O)NC(=O)[C@H](CCC(=O)O)NC(=O)[C@H](CO)NC(=O)[C@H](CCCCN)NC(=O)[C@H](CCCCN)NC(=O)[C@@H](NC(=O)[C@H](CC(C)C)NC(=O)[C@H](CCC(=O)O)NC(=O)[C@H](CCC(=O)O)NC(=O)[C@@H](NC(=O)[C@H](CCCCN)NC(=O)[C@H](CCCCN)NC(=O)[C@@H](NC(=O)[C@H](Cc1ccc(O)cc1)NC(=O)[C@H](CCC(=O)O)NC(=O)[C@H](CCC(=O)O)NC(=O)[C@@H](NC(=O)[C@H](CCCCN)NC(=O)[C@H](CCCCN)NC(=O)[C@H](CC(=O)O)NC(=O)[C@H](Cc1c[nH]c2ccccc12)NC(=O)[C@H](CCC(=O)O)NC(=O)[C@H](CCC(=O)O)NC(=O)[C@H](Cc1c[nH]c2ccccc12)NC(C)=O)[C@@H](C)CC)[C@@H](C)O)[C@@H](C)CC)[C@@H](C)CC)C(=O)N[C@@H](CCC(N)=O)C(=O)N[C@@H](CCCCN)C(=O)N[C@@H](CCCCN)C(=O)N[C@@H](CC(N)=O)C(=O)N[C@@H](CCC(=O)O)C(=O)N[C@@H](CCC(=O)O)C(=O)N[C@@H](CCC(=O)O)C(=O)N[C@@H](CC(C)C)C(=O)N[C@@H](CCCCN)C(=O)N[C@@H](CCCCN)C(N)=O` (Ac-WEEWDKKIEEYTKKIEELIKKSEEIQKKNEEELKK-NH2) are 8.2%, 2.9 nM and 79.7 °C.
`CC[C@H](C)[C@H](NC(=O)[C@H](CC(C)C)NC(=O)[C@H](CCC(=O)O)NC(=O)[C@H](CCC(=O)O)NC(=O)[C@@H](NC(=O)[C@H](CCCCN)NC(=O)[C@H](CCCCN)NC(=O)[C@@H](NC(=O)[C@H](Cc1ccc(O)cc1)NC(=O)[C@H](CCC(=O)O)NC(=O)[C@H](CCC(=O)O)NC(=O)[C@@H](NC(=O)[C@H](CCCCN)NC(=O)[C@H](CCCCN)NC(=O)[C@H](CC(=O)O)NC(=O)[C@H](Cc1c[nH]c2ccccc12)NC(=O)[C@H](CCC(=O)O)NC(=O)[C@H](CCC(=O)O)NC(=O)[C@H](Cc1c[nH]c2ccccc12)NC(C)=O)[C@@H](C)CC)[C@@H](C)O)[C@@H](C)CC)C(=O)N[C@@H](CCCCN)C(=O)N[C@@H](CCCCN)C(=O)N[C@@H](CO)C(=O)N[C@@H](CCC(=O)O)C(=O)N[C@@H](CCC(=O)O)C(=O)N[C@@H](CCCCN)C(=O)N[C@@H](CCC(N)=O)C(=O)N[C@@H](CCCCN)C(=O)N[C@@H](CCCCN)C(=O)N[C@@H](CC(N)=O)C(=O)N[C@@H](CCC(=O)O)C(=O)N[C@@H](CCC(=O)O)C(=O)N[C@@H](CCC(=O)O)C(=O)N[C@@H](CC(C)C)C(=O)N[C@@H](CCCCN)C(=O)N[C@@H](CCCCN)C(N)=O` (Ac-WEEWDKKIEEYTKKIEELIKKSEEKQKKNEEELKK-NH2): the Activity in assay [1] was found to be 4.8%. The 50% effective concentration (EC50) in assay [2] worked out at 2.7 nM. Besides, the midpoint of thermal melting (Tm) in assay [3] came to 69.2 °C.
`CC[C@H](C)[C@H](NC(=O)[C@H](CC(C)C)NC(=O)[C@H](CCC(=O)O)NC(=O)[C@H](CCC(=O)O)NC(=O)[C@@H](NC(=O)[C@H](CCCCN)NC(=O)[C@H](CCCCN)NC(=O)[C@@H](NC(=O)[C@H](Cc1ccc(O)cc1)NC(=O)[C@H](CCC(=O)O)NC(=O)[C@H](CCC(=O)O)NC(=O)[C@@H](NC(=O)[C@H](CCCCN)NC(=O)[C@H](CCCCN)NC(=O)[C@H](CC(=O)O)NC(=O)[C@H](Cc1c[nH]c2ccccc12)NC(=O)[C@H](CCC(=O)O)NC(=O)[C@H](CCC(=O)O)NC(=O)[C@H](Cc1c[nH]c2ccccc12)NC(C)=O)[C@@H](C)CC)[C@@H](C)O)[C@@H](C)CC)C(=O)N[C@@H](CCCCN)C(=O)N[C@@H](CCCCN)C(=O)N[C@@H](CO)C(=O)N[C@@H](CCC(=O)O)C(=O)N[C@@H](CCC(=O)O)C(=O)N[C@@H](CCSC)C(=O)N[C@@H](CCC(N)=O)C(=O)N[C@@H](CCCCN)C(=O)N[C@@H](CCCCN)C(=O)N[C@@H](CC(N)=O)C(=O)N[C@@H](CCC(=O)O)C(=O)N[C@@H](CCC(=O)O)C(=O)N[C@@H](CCC(=O)O)C(=O)N[C@@H](CC(C)C)C(=O)N[C@@H](CCCCN)C(=O)N[C@@H](CCCCN)C(N)=O` (Ac-WEEWDKKIEEYTKKIEELIKKSEEMQKKNEEELKK-NH2): the Activity in assay [1] is 6%. Moreover, the 50% effective concentration (EC50) in assay [2] worked out at 2 nM. Also, in assay [3], the Tm came to 80.2 °C.
